Consider five compounds from patent publication US5747507A, “Cardio-protective agent” (priority 1992, dated 1998).

Each structure is given as a SMILES string. Values joined by “and” are separate entries in the source; they are usually repeats but may differ in a detail not shown here. Equal entries are not always repeated.

In data set [1] the test system is endothelin-induced myocardial infarction. Briefly: Inhibitory effect on endothelin-induced myocardial infarction: T-wave elevation in rabbit electrocardiogram. It counts as in vivo, Japanese White rabbits. The conditions noted are these: 3.0 mg/kg oral; for T-wave elevation: 15 min before endothelin 1.2 nmol/kg i.v., 3 min after endothelin, mean values. An excerpt: (§1) Inhibitory effect on endothelin-induced myocardial infarction
(§2) The inhibitory effect of the cardio-protective agent of the present invention on endothelin-induced myocardial infarction was examined in the following manner.
(§3) The animals used in the examination were Japanese White rabbits each weighing 2.0 to 3.1 kg, which were divided into two groups, i.e., a first group consisting of 40 rabbits and a second group consisting of 13 rabbits. The hydrochloride of the above-mentioned compound (1) was dissolved in distilled water, and the resultant solution was orally administered to each of 10 rabbits of the first group in an amount of 3.0 mg/kg (body weight). In the same manner as mentioned above, diltiazem and nicorandil were individually, orally administered to each of another 10 rabbits of the first group. As a control, distilled water was orally administered to each of the remaining 10 rabbits of the first group.
(§4) Fifteen minutes after the administration, 1.2 nmol/kg (body weight) of endothelin (manufactured and sold by Peptide Institute, Japan) was injected into the auricular vein of each of the above rabbits of the first and second groups, thereby inducing myocardial infarction. With respect to the rabbits of the first and second groups, the degree of myocardial infarction was evaluated by rabbit electrocardiogram and by measuring the activity of enzymes leaked into the rabbit plasma, respectively, as follows.
With respect to each of the rabbits of the first group, the rabbit electrocardiogram was taken just before and 3 minutes after the injection of endothelin, according to the standard limb lead II induction method [Ozawa, Training of Electrocardiogram, p. 24-32, 1984, Chugai Igaku Co., Ltd., Japan), and T-wave elevation was measured.

Data set [2] has as its system isolated hearts. Description: Inhibitory effect on myocardial cell injury caused by ischemia/reperfusion (1): coronary artery flow of isolated hearts (Langendorff method). Set-up: species or system male Wistar rats. The following applies: for Coronary flow change (% based on pre-ischemic values): 40 min after initiation of reperfusion; for Bradycardia and cardiac arrest (in words): perfused isolated hearts; for Lowering of coronary artery flow (in words): ischemia/reperfusion. An excerpt: Inhibitory effect on myocardial cell injury caused by ischemia/reperfusion (1)
(§5) Hearts excised from male Wistar rats (approximately six-week old) were perfused with the Krebs-Heiseleit solution according to the Langendorff method [Tamura and Fujii, "Yakurigaku Jikkenho (Experimental Methods in Pharmacology)", pp. 176-177, 1990, published by Kyodo-isho Publishing Co., Ltd., Japan; and Yamada, Kubota et al., "Yakurigaku Jisshu (Pharmacological Practice)", pp. 79-81, 1979, published by Kodansha Scientific Co., Ltd., Japan]. After the isolated hearts were allowed to stabilize, the flowing of the perfusate was temporarily stopped, and the isolated hearts were allowed to be in an ischemic state for 40 minutes. Subsequently, reperfusion was conducted for 40 minutes.
Hydrochlorides of compounds (1) and (83) mentioned above were individually dissolved in distilled water, and the resultant aqueous solutions of the hydrochlorides of compounds (1) and (83) were individually introduced to and perfused in a perfusion circuit with the reperfusate for 5 minutes simultaneously with the initiation of reperfusion. In the same manner as mentioned above, diltiazem as a comparative agent and physiological saline as a control were individually perfused with the reperfusate. The perfusion conditions of the aqueous solutions of the hydrochlorides of compounds (1) and (83), diltiazem and physiological saline are shown in Table 3.
With respect to each of the test agents, the coronary artery flow was measured just before the ischemia, i.e., the stopping of the perfusion, and 40 minutes after the initiation of reperfusion using an electromagnetic flow probe FF-030P (manufactured and sold by Nippon Koden Corp., Japan).

Data set [3] relates to heart. The following applies: in vivo; cited from earlier work.
The conditions of data set [4]: literature; cited from earlier work.
Data set [5] deals with endothelin-induced myocardial infarction. Briefly: Inhibitory effect on endothelin-induced myocardial infarction: creatine kinase activity in rabbit plasma. In kind it is in vivo, Japanese White rabbits.
From the text: as §1, §2, §3
(§6) With respect to the rabbits of the second group, the above-prepared aqueous solution of the hydrochloride of compound (1) was orally administered to each of 7 rabbits in the same manner as mentioned above, and as a control, distilled water was orally administered to each of the remaining 6 rabbits.
as §4
(§7) With respect to each of the rabbits of the second group, the blood was collected using a heparinized syringe just before and thirty minutes after the intravenous administration of endothelin. The collected blood was subjected to centrifugation using a cooling centrifuge (CR20B2, manufactured and sold by Hitachi Corp., Japan), to thereby separate plasma. […]

The subject of data set [6] is vascular smooth muscle. The following applies: literature; cited from earlier work.
In data set [7] the test system is endothelin-induced myocardial infarction. Description: Inhibitory effect on endothelin-induced myocardial infarction: lactate dehydrogenase activity in rabbit plasma. In kind it is in vivo, Japanese White rabbits.
From the text: as §1, §2, §3, §6, §4, §7

The conditions of data set [8]: literature; cited from earlier work. The source holds these as a separate data set.
For data set [9] the following is noted: literature; cited from earlier work. The source holds these as a separate data set.
Data set [10] deals with isolated hearts. Briefly: Inhibitory effect on myocardial cell injury caused by ischemia/reperfusion (2): leaked creatine kinase activity, isolated hearts (Langendorff method). More on the design: species or system rats. The following applies: mean values.
From the text: as §5
(§8) Inhibitory effect on myocardial cell injury caused by ischemia/reperfusion (2)
(§9) In the same manner as in Example 2, hearts excised from rats were perfused in the Krebs-Henseleit solution in accordance with the Langendorff method. After the isolated hearts were allowed to stabilize, the flowing of the perfusate was temporarily stopped, and the isolated hearts were allowed to be in an ischemic state for 20 minutes. Subsequently, reperfusion was conducted for 60 minutes. As activities of the leaked enzymes, the lactate dehydrogenase activity and […] activity were examined with respect to each of the samples using an autoanalizer (Super Z 818, manufactured and sold by NITTEC Co., Ltd., Japan). The aqueous solutions of the hydrochlorides of compounds (1) and (83) were individually introduced to and perfused in a perfusion circuit with reperfusate simultaneously with the initiation of the reperfusion under the conditions as shown in Table 4. As a control, physiological saline was perfused with the reperfusate in the same manner as mentioned above. The above-mentionedactivities of the enzymes leaked into the perfusate and reperfusate were, respectively, measured before the ischemia and 10 minutes after the initiation of reperfusion.

Data set [11] has as its system isolated hearts. Briefly: Inhibitory effect on myocardial cell injury caused by ischemia/reperfusion (2): leaked lactate dehydrogenase activity, isolated hearts (Langendorff method). More on the design: species or system rats. The following applies: for Lactate dehydrogenase activity, before ischemia / Lactate dehydrogenase activity, 10 min after initiation of reperfusion: mean values; for Activities of the leaked enzymes (in words): lactate dehydrogenase and creatine kinase, ischemia/reperfusion.
From the text: as §5, §8, §9

Data set [12] concerns Japanese White rabbits. Description: Toxicity in oral administration. In kind it is in vivo. The following applies: 30 mg/kg (body weight). An excerpt: Toxity in oral administration
Where [13] appears, read: plasma, 3.0 mg/kg oral, 30 min after i.v. endothelin, mean values.
Setting [14] is: plasma, 3.0 mg/kg oral, just before i.v. endothelin, mean values.

For `O=C(NCCO[N+](=O)[O-])c1cccnc1` [Nicorandil], in data set [1], the “Inhibition of T-wave elevation (in words)” value (“Inhibition” for short) is “T-wave elevation was not inhibited” and the T-wave elevation turned out to be 0.58 mV.
Take `COc1ccc([C@@H]2Sc3ccccc3N(CCN(C)C)C(=O)[C@@H]2OC(C)=O)cc1` [Diltiazem, reference compound]: in data set [2] (1 × 10^-5 M), the “Bradycardia” value is reported as “bradycardia” and the “Cardiac arrest” value is “cardiac arrest”. For the same compound, in data set [2] (3 × 10^-6 M), the “Coronary flow change (% based on pre-ischemic values)” value is given as 54%. Besides, the “Bradycardia and cardiac arrest (in words)” value in data set [2] is “bradycardia and cardiac arrest occurred”. In [3], the “Side effect on atrioventricular conducting system” value is given as “atrioventricular conducting system of the patient is depressed” and the “Side effect on heart rate” value is listed as “decrease in heart rate”. Moreover, in data set [1], the “Inhibition” value is listed as “T-wave elevation was not inhibited” and the T-wave elevation came out at 0.46 mV.
For `O=S(=O)(c1cccc2cnccc12)N1CCCNCC1` [compound (1), 1-(5-isoquinolinesulfonyl)homopiperazine], the “Effect on blood flow” value in [4] is “increasing effect on blood flow”. Moreover, the “Effect on creatine kinase activity in plasma (in words)” value in data set [5] (caused by i.v. endothelin) is “had an inhibitory effect”. Moreover, in data set [5] (setting [13]), the “Creatine kinase activity, 30 min after administration” value is 163.9 IU/1. Also, the “Creatine kinase activity, just before administration” value in [5] (setting [14]) was 114.6 IU/1. In addition, the “Effect on vascular smooth muscle” value in data set [6] is “relaxing effect on vascular smooth muscle”. In addition, the “Effect on lactate dehydrogenase activity in plasma (in words)” value in data set [7] (caused by i.v. endothelin) is listed as “had an inhibitory effect”. Further, the “Lactate dehydrogenase activity, 30 min after administration” value in data set [7] (setting [13]) turned out to be 52.1 IU/1. Further, the “Lactate dehydrogenase activity, just before administration” value in data set [7] (setting [14]) is 29.7 IU/1. Besides, in data set [8], the Cerebral protective effect result is given as “cerebral protective effect”. Moreover, the Antihypertensive effect entry in data set [9] was “antihypertensive effect”. For the same compound, in data set [2] (3 × 10^-6 M), the “Coronary flow change (% based on pre-ischemic values)” value was 70%. In data set [2], the “Lowering of coronary artery flow (in words)” value is given as “greatly inhibited”. For the same compound, the “Bradycardia and cardiac arrest (in words)” value in data set [2] is on record as “neither bradycardia nor cardiac arrest occurred”. Also, in [1], the “Inhibition” value is listed as “can remarkably inhibit the T-wave elevation”. Also, the T-wave elevation in data set [1] is 0.00 mV and 0 mV. Further, the “Creatine kinase activity, before ischemia” value is 18.6 IU/min in [10] (10^-5 M group) and 26.6 IU/min in [10] (10^-6 M group). Also, the “Creatine kinase activity, 10 min after initiation of reperfusion” value turned out to be 901.5 IU/min in [10] (10^-5 M) and 1159.8 IU/min in data set [10] (10^-6 M). The results for the “Lactate dehydrogenase activity, before ischemia” value in [11] (10^-5 M group) and in data set [11] (10^-6 M group) were 21.3 IU/min and 22.8 IU/min, respectively. For the same compound, the figures for the “Lactate dehydrogenase activity, 10 min after initiation of reperfusion” value in data set [11] (10^-5 M) and in data set [11] (10^-6 M) were 575.3 IU/min and 732.8 IU/min, respectively. In addition, the “Activities of the leaked enzymes (in words)” value in [11] is recorded as “greatly inhibited”.
As to `O=S(=O)(c1cccc2c(O)nccc12)N1CCCNCC1` [compound (83), 1-(1-hydroxy-5-isoquinolinesulfonyl)homopiperazine], the “Effect on blood flow” value in data set [4] is given as “increasing effect on blood flow”. Further, the “Effect on vascular smooth muscle” value in [6] is given as “relaxing effect on vascular smooth muscle”. The Cerebral protective effect result in [8] is given as “cerebral protective effect”. For the same compound, the Antihypertensive effect entry in data set [9] was “antihypertensive effect”. Moreover, the “Coronary flow change (% based on pre-ischemic values)” value in data set [2] (1 × 10^-5 M) came to 58%; in [2] (3 × 10^-5 M), 61%. For the same compound, the “Lowering of coronary artery flow (in words)” value in data set [2] is reported as “greatly inhibited”. The “Bradycardia and cardiac arrest (in words)” value in data set [2] is listed as “neither bradycardia nor cardiac arrest occurred”. Moreover, the “Creatine kinase activity, before ischemia” value in data set [10] (10^-5 M group) was 17.4 IU/min. Besides, in data set [10] (10^-5 M), the “Creatine kinase activity, 10 min after initiation of reperfusion” value is recorded as 881.5 IU/min. For the same compound, the “Number of rabbits died/Number of rabbits tested” value in data set [12] is listed as 0/5. Further, the “Lactate dehydrogenase activity, before ischemia” value in [11] (10^-5 M group) was 1.2 IU/min. In addition, the “Lactate dehydrogenase activity, 10 min after initiation of reperfusion” value in data set [11] (10^-5 M) is listed as 487.0 IU/min. The “Activities of the leaked enzymes (in words)” value in [11] was “greatly inhibited”.
For `N=C(N)NCCNS(=O)(=O)c1cccc2cnccc12` [(104), N-(2-guanidinoethyl)-5-isoquinolinesulfonamide], the “Effect on blood flow” value in data set [4] is reported as “increasing effect on blood flow”. Besides, the “Effect on vascular smooth muscle” value in data set [6] is listed as “relaxing effect on vascular smooth muscle”.
